For series [1], the system named is rd10 mice. As to the kind of experiment: In vivo efficacy in rd10 mouse model of retinitis pigmentosa, electroretinographic (ERG) analysis. Conditions: for retinal function measured by ERG activity: 3 μL of 20 mM solution per eye daily for 11 days, scotopic conditions, vs untreated rd10. The method, then:
rd10 mice were treated by ocular instillation with phosphate buffered saline (PBS) containing the compounds of the invention (1, 35, 50, 56 and 70) for 11 days (from P14 to P24). Animals were dark adapted for 8 hours at P25 and full-field flash electroretinographic (ERG) responses were recorded with the retina illuminated with a LED-driven Ganzfeld dome. A series of light flashes of increasing intensity, from 0.001 to 10 cd s/m^2, were averaged both in scotopic (dark-adapted) and photopic (light adapted) conditions. Photopic cone responses were recorded following 5 min of light adaptation with a background white light (30 cd/m^2). Light intensity was controlled for each animal group (Mavo-Monitor USB, Gossen, Germany). The stimulation protocols were designed according to the International Society for Clinical Electrophysiology of Vision. Briefly, mice were anesthetized with intraperitoneal administration of a saline solution containing ketamine (95 mg/kg) and xylazine (5 mg/kg) and kept on a 37° C. heating pad. Ocular instillation of 1% tropicamide was applied to induce mydriasis. ERG responses were recorded from both eyes in response to a Ganzfeld stimulator under light flashes. A total of 4 to 64 consecutive stimuli were averaged, with an interval between light flashes in scotopic conditions of 10 s for dim flashes and of up to 60 s for the highest intensity for every light intensity used. For photopic conditions, a one-second interval between light flashes was used. ERG signals were amplified, and band filtered between 0.3 and 1000 Hz (CP511 AC amplifier; Grass Instruments, Quincy, MA, USA). Electrical signals were digitized at 20 kHz with a power laboratory data acquisition board (AD Instruments, Chalgrove, UK).
ERGs were performed using an electrode fixed to a corneal lens (Burian-Allen electrode; Hansen Ophthalmic Development Laboratory, Coralville, IA, USA) and a reference electrode fixed to the mouth, with a ground electrode placed in the tail. Rod-mediated responses were recorded from light flashes ranging from 0.001 to 10 cd s/m^2 with dark-adapted mice. Mixed rod- and cone-mediated signals were recorded in response to −1.5 to 1.5 log cd s/m^2 light flashes. Oscillatory potential (OP) was isolated using 11 cd s/m^2 white flashes, with a recording frequency ranging between 100 and 10,000 Hz. For recording of cone-mediated responses, we applied light flashes ranging from 0.5 to 2 log cd s/m^2 on a rod-saturating background of 30 cd s/m^2. Amplitudes of the a-wave and b-wave were averaged, using data provided by a researcher with no information regarding the experimental condition of mice.
Data correspond to a pool of 3 independent experiments (N=3) with 4-5 mice per experimental group. Data are expressed as mean+/−standard deviation. Unpaired t-test was used for statistical analysis.

A further series relates to 661W cells. The series is described as follows: Prevention of 9-cis-Retinal and light-induced phototoxicity, impedance recording. Conditions: Mus musculus, light or radiation study, 20 μM 9-cis-Retinal, 30,000 luxes white light, impedance converted to percentage of cytolysis, read-out: EC50 of protection against phototoxicity. It is filed as cell-based. The method, then:
661W cells were seeded onto 96-wells MEA impedance plates (50,000 cells/well) and grown until confluence in the Maestro Edge equipment (Axion Biosystems) at 37° C. and 5% CO2. When impedance reaches a plateau, phototoxicity is induced by addition of 20 μm 9-cis retinal and 30,000 luxes of white light. Increasing concentrations of compound 35 were added (A). Impedance was recorded every minute for 24 hours and was converted to percentage of cytolysis (B). 661 W cells were seeded in a 96-wells impedance plate (50,000 cells/well), previously coated with ECM 1:100, and grown O/N at 37° C. and 5% CO2 in DMEM/F-12 (Thermo Fisher, 11320033) supplemented with 40 μL/L hydrocortisone 21-hemisuccinate (Sigma, H-2270), 40 μL/L progesterone (Sigma, P-8783), 0.032 g/L putrescine (Sigma, P-7505), 40 μL/L β-mercaptoethanol (Sigma, M-6250), antibiotic-antimycotic solution (Sigma, A5955) and 10% fetal bovine serum (FBS). After 8 h, the medium was replaced by DMEM/F-12 without FBS or complements to remove cellular debris. When cells arrived at a plateau in the impedance recording (4-8 hours after the medium change, depending on the culture plate) compound 35 was added and two hours later the 9-cis-Retinal (Cf=20 μM) was added. The cells were placed in the Maestro Z and exposed to 30,000 white light luxes. to register the impedance.

For series [2], the system named is rd10 mice. The series is described as follows: Optokinetic response based on a modified Morris water maze. It is filed as in vivo, mouse. The settings on record: daily ocular instillation for 16 days; spatial frequencies 0.01; 0.02; 0.17 and 0.35 cycles/degree. The method, then: rd10 mice were treated by ocular instillation with phosphate buffered saline (PBS) containing the compound 35 of the invention for 16 days (from P14 to P29). To study optokinetic (OKT) response, we conducted an OKT test in combination with a modified Morris water maze using 9 rd10 mice at p30: 5 treated with compound 35 and 4 untreated. Animals were adapted to the experimental conditions for 1 week before behavioral testing. Mice were trained in a square pool (70×40 cm) filled with water (24-26-C), with all sides opaque, except the frontal side, where a screen was placed. The screen was divided vertically into 2 equal parts. A pattern of moving vertical bars was presented on one half of the screen, with the other half turned off. The direction of the bars was random: 50% of the time moving to the right and 50% of the time moving to the left. The bar velocity was constant throughout the process. Mice were trained for one week to associate the area of the screen with moving bars with the presence of a submerged platform, not visible to the mice under the dim light conditions, that was placed right next to that area of the screen. The platform allowed the mice to escape from the water. […] Contrast sensitivity values were measured, and the results of treated and untreated mice were compared.

Series [3] concerns rd10 mice. The series is described as follows: Morphometric analysis of the retina (immunohistochemistry, rhodopsin and cone arrestin). It is filed as in vivo, mouse. The settings on record: 3 μL of 20 mM solution per eye for 11 days; vs untreated rd10. The method, then:
A detailed morphometric analysis, based on immunohistochemistry, was performed. For this purpose, rd10 mice were treated by ocular instillation with phosphate buffered saline (PBS) containing compound 35 (3 μL of 20 mM solution per eye) for 11 days (from P14 to P24). At P25 eyeballs were enucleated and fixed with 4% paraformaldehyde (in PBS) for 3 hours. The anterior segment and lens were dissected, and the eyecups were incubated in 30% sucrose (in PBS) for 12 h at 4° C. Cryosection with DAPI. ocular cryosections were stained with DAPI, rhodopsin and cone arrestin for immunohistochemical analysis. Briefly, cryosections were incubated with antibodies against rhodopsin (Millipore, MABN15) and cone arrestin (Millipore, AB15282) both at 1:400 for 8 h at 4° C. and buffered with secondary antibodies both at 1:400 and DAPI (Sigma, D89542) 1:1000 for 1 hour. The sections were analyzed by fluorescent microscopy.

The nature of series [4]: Retinal biodistribution after topical ocular administration, HPLC-MS of retina (mouse). It counts as in vivo. Conditions: formulated with 0.2% hyaluronic acid vs PBS solution; 4 h after single ocular instillation. The method, then: Ocular instillation with PBS solutions containing 0.2% hyaluronic acid (HA) and the selected compounds of the invention were administered: 17 μg/eye (3 μL of 20 mM solution per eye) in mouse; 65 μg/eye (10 μL of 17 mM solution per eye) in rat; and 559 μg/eye (50 μL of 40 mM solution per eye) in swine. Animals were sacrificed after 4 hours (mouse, rabbit and swine) or after 24 hours (rats) of treatment to determinate the availability of the compounds in the retina. Retinas were mechanically homogenized in physiological serum ([…]) and processed to analyze the compounds availability by HPLC-MS.

Series [5] is described as follows: Retinal biodistribution by in vivo autoradiography after ocular instillation. Also on record: species or system Sprague-Dawley rats. Conditions: 5 μL/eye of 20 mM PBS solution, autoradiography at 1, 8 and 24 h. The method, then:
In order to test the bioavailability of the compounds 1, 24, 35, 53, 66 and 67 to the retina, the following species we used: mouse, rat, rabbit and swine. Animals were treated under anesthesia. In vivo autoradiography imaging was conducted at 1, 8 and 24 hours following the ocular instillation of compound [^3H]-35 (5 μL/eye) as a phosphate buffered saline (PBS) 20 mM solution under carrier added conditions (ca. 7 mBq/eye) on Sprague-Dawley rats (n=4 for each time point). After the enucleation, the eye was incubated firstly in an aqueous solution at 4% of paraformaldehyde for 4 hours, then in aqueous solution at 10% and 20% of sucrose for 2 hours each and finally in aqueous solution at 30% of sucrose for one week. All the incubations were at 4° C. The samples were fixed in OCT (optimal cutting temperature polymer) and fine 20-μm sections of eye were cut using a Leyca cryostat (Leica CM3050 S, Germany) at −24° C. The slices (20 μm thick) were disposed on glass slides (Superfrost Plus, Labolan). Autoradiography was performed in Beta Imager 2000 system (Biospace Lab, France), for 1 h on four consecutive slices of the central part of the organ where all the parts are visible (FIG. 1 A).

The structures appear in SMILES notation.

Consider six compounds from patent US20260256746A1, “TRIAZOLES FOR USE IN THE TREATMENT OF OCULAR DISEASES” (MIRAMOON PHARMA, S.L., priority 2022, published 2026).

On to `COc1ccc(OCc2cn(CCN(C)C)nn2)cc1` [Compound 1, 1-[2-(N,N-dimethylamino)ethyl]-4-[(4-methoxyphenoxy)methyl]-1H-1,2,3-triazole], for which the “retinal function measured by ERG activity” value (from here on “retinal function measured”) in the series on rd10 mice [1] was “increased retinal function”.
Broadly, the EC50 is the concentration needed to bring the measured effect to its halfway point. `COc1ccc(SCc2cn(CCN(C)C)nn2)cc1` [Compound 35, 1-[2-(N,N-dimethylamino)ethyl]-4-[(4-methoxyphenyl)thiomethyl]-1H-1,2,3-triazole]: the EC50 with 661W cells was 30.5 nM. Moreover, the “contrast sensitivity (visual acuity), treated vs untreated” value in the series on rd10 mice [2] was “greatest differences were observed in the outlier values of spatial frequency”. In the series with rd10 mice [3], the “preservation of photoreceptors (number of rods and cones per square mm, rod outer and inner segment)” value is recorded as “significant preservation of photoreceptors”. In addition, the “delivery percentage to the mouse retina (percentage of administered dose per gram of retina)” value in series [4] is “higher delivery percentage”. Moreover, the “cone function: recovery score vs. WT” value with rd10 mice [1] (0.2 cd s/m^2 light intensity) is 78%. The “cone function: increase of ERG amplitude” value in the series on rd10 mice [1] (0.2 cd s/m^2 light intensity, vs rd10 control group) was determined as 66%. The “retinal function measured” value in the series on rd10 mice [1] is on record as “increased retinal function”.
For the compound `COc1ccc(SCc2cn(CCCNC(=N)NC(=N)N)nn2)cc1` [Compound 50, 1-[3-(biguanidinyl)propyl]-4-[(4-methoxyphenyl)thiomethyl]-1H-1,2,3-triazole], in the series on rd10 mice [1], the “retinal function measured” value is listed as “increased retinal function”.
As for `[3H]c1c(CSc2ccc(OC)cc2)nnn1CCN(C)C` [Compound 52, 1-[2-(N,N-dimethylamino)ethyl]-5-trithium-4-[(4-methoxyphenyl)thiomethyl]-1H-1,2,3-triazole], in series [5], the “time after administration up to which compound was detected in rat retina” value is “up to 24 h” and the “time of peak concentration in rat retina” value was “around 8 h”.
Turning to `[O-][S+](Cc1cn(CCN2CCCCC2)nn1)c1cccc(C(F)(F)F)c1` (stereo not shown) [Compound 56, 1-[2-(piperidin-1-yl)ethyl]-4-[(3-trifluoromethylphenyl)sulfinylmethyl]-1H-1,2,3-triazole], the “retinal function measured” value in the series with rd10 mice [1] was “increased retinal function”.
On to `CC(C)c1ccc(S(=O)(=O)Cc2cn(CCN3CCOCC3)nn2)cc1` [Compound 70, 4-[(4-isopropylphenyl)sulfonylmethyl]-1-[2-(4-morpholinyl)ethyl]-1H,1,2,3-triazole], for which the “retinal function measured” value with rd10 mice [1] is given as “increased retinal function”.
